Tests used:
Test in all cases: relative viability (nuclei count vs DMSO), 5 days (fraction); higher = more cells survive
[1] = compound: CS(=O)(=O)c1ccc(-c2cnc(N)c(C(=O)Nc3ccccc3)n2)cc1 [VE-821] + N=C(N)NC(=N)NCCc1ccccc1 [Phenformin] (partner 250 µM)
Procedure, shortened: (§1)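 For relative viability, nuclei counts in treated wells were divided by those in vehicle wells. Lung cancer cell lines had been pin-tool dosed in 1536-well plates the day after seeding and cultured for 5 days, then fixed and stained in one step (final 0.05% Triton X-100, 1% formaldehyde, 1 ug/ml Hoechst) and imaged at 4×. Doses were one drug alone or a fixed anchor-drug dose plus five library-drug doses (not always all listed) in √10 steps, and values are duplicate-plate medians.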

[2] = compound: N#CC[C@H](C1CCCC1)n1cc(-c2ncnc3[nH]ccc23)cn1 [Ruxolitinib] + CC(C)C[C@H](NC(=O)[C@H](Cc1ccccc1)NC(=O)c1cnccn1)B(O)O [Bortezomib] (partner 0.002 µM)
Procedure, shortened: as §1

[3] = compound: CS(=O)(=O)c1ccc(-c2cnc(N)c(C(=O)Nc3ccccc3)n2)cc1 [VE-821] + COc1cccc2cc(-c3nc([C@H]4CC[C@H](C(=O)O)CC4)n4ncnc(N)c34)[nH]c12 [OSI-027] (partner 0.5 µM)
Procedure, shortened: as §1

[4] = compound: CS(=O)(=O)c1ccc(C(=O)Nc2ccc(Cl)c(-c3ccccn3)c2)c(Cl)c1 [Vismodegib] + CC(C)C[C@H](NC(=O)[C@H](Cc1ccccc1)NC(=O)c1cnccn1)B(O)O [Bortezomib] (partner 0.002 µM)
Procedure, shortened: as §1

Row | Cell Line | relative viability ([1]; first compound 0.08 µM) | relative viability ([1]; first compound 0.253 µM) | relative viability ([1]; first compound 0.8 µM) | relative viability ([1]; first compound 2.53 µM) | relative viability ([1]; first compound 8 µM) | relative viability ([2]; first compound 0.08 µM) | relative viability ([2]; first compound 0.253 µM) | relative viability ([2]; first compound 0.8 µM) | relative viability ([2]; first compound 2.53 µM) | relative viability ([2]; first compound 8 µM) | relative viability ([3]; first compound 0.08 µM) | relative viability ([3]; first compound 0.253 µM) | relative viability ([3]; first compound 0.8 µM) | relative viability ([3]; first compound 2.53 µM) | relative viability ([3]; first compound 8 µM) | relative viability ([4]; first compound 0.08 µM) | relative viability ([4]; first compound 0.253 µM) | relative viability ([4]; first compound 0.8 µM) | relative viability ([4]; first compound 2.53 µM) | relative viability ([4]; first compound 8 µM)
1 | NCI-H1651 | 0.349 | 0.305 | 0.361 | 0.32 | 0.283 | 0.944 | 0.923 | 0.937 | 0.794 | 0.969 | 0.781 | 0.629 | 0.578 | 0.686 | 0.521 | 1 | 0.936 | 0.953 | 0.619 | 0.882
2 | NCI-H1666 | 0.578 | 0.536 | 0.602 | 0.6 | 0.535 | 0.685 | 0.833 | 0.861 | 0.781 | 0.96 | 0.903 | 0.785 | 0.948 | 0.936 | 0.703 | 0.755 | 0.765 | 0.906 | 0.722 | 0.956
3 | NCI-H1734 | 0.392 | 0.386 | 0.377 | 0.402 | 0.271 | 0.928 | 0.924 | 0.983 | 0.74 | 0.835 | 0.701 | 0.529 | 0.599 | 0.529 | 0.331 | 0.89 | 0.835 | 0.949 | 0.858 | 1.03
4 | NCI-H1755 | 0.632 | 0.601 | 0.546 | 0.615 | 0.527 | 0.984 | 1.04 | 1.03 | 0.853 | 0.658 | 0.795 | 0.709 | 0.636 | 0.755 | 0.632 | 0.903 | 0.947 | 1.05 | 0.966 | 1.01
5 | NCI-H1792 | 0.332 | – | 0.281 | 0.342 | 0.258 | 0.957 | 0.905 | 0.911 | 0.834 | 0.774 | 0.725 | 0.786 | 0.608 | 0.447 | 0.484 | 0.953 | 0.974 | 0.929 | 0.946 | 0.93
6 | NCI-H1915 | 0.391 | 0.359 | 0.39 | 0.385 | 0.347 | 0.956 | 0.955 | 0.91 | 0.961 | 0.905 | 0.701 | 0.593 | 0.618 | 0.684 | 0.534 | 1.05 | 0.976 | 0.985 | 0.905 | 0.953
7 | NCI-H1975 | 0.397 | 0.394 | – | 0.418 | 0.36 | 0.415 | 0.382 | 0.482 | 0.303 | 0.316 | 0.901 | 0.589 | – | 0.471 | 0.439 | 0.381 | 0.396 | 0.374 | 0.373 | 0.398
8 | NCI-H1993 | 0.457 | 0.439 | 0.527 | 0.482 | 0.524 | 0.893 | 1.02 | 1.23 | 1.26 | 1.29 | 0.532 | 0.553 | 0.506 | 0.468 | 0.495 | 1.03 | 1.24 | 0.983 | 1.05 | 1.08
9 | NCI-H2009 | 0.507 | 0.471 | 0.498 | 0.461 | 0.36 | 1.19 | 0.963 | 1.31 | 0.828 | 0.646 | 0.693 | 0.557 | 0.598 | 0.618 | 0.318 | 0.947 | 0.986 | 0.976 | 0.967 | 1.04
10 | NCI-H2023 | 0.481 | 0.394 | 0.282 | 0.272 | 0.139 | 1.13 | 0.928 | 1.43 | 0.844 | 1.01 | 0.392 | 0.311 | 0.274 | 0.274 | 0.11 | 0.906 | 0.889 | 0.915 | 1.02 | 0.943
11 | NCI-H2085 | 0.762 | 0.674 | 0.558 | 0.869 | 0.481 | 0.964 | 1.06 | 1.26 | 0.904 | 0.822 | 0.788 | 0.736 | 0.489 | 0.747 | 0.334 | 1.08 | 0.985 | 1.06 | 1.1 | 1.02
12 | NCI-H2087 | 0.562 | 0.486 | 0.427 | 0.438 | 0.375 | 0.849 | 0.853 | 0.985 | 0.821 | 0.701 | 0.537 | 0.576 | 0.515 | 0.683 | 0.495 | 0.745 | 0.786 | 0.699 | 0.587 | 0.836
13 | NCI-H2126 | 0.565 | 0.494 | 0.51 | 0.514 | 0.409 | 1.12 | 1.21 | 1.24 | 1.15 | 1.18 | 0.757 | 0.651 | 0.645 | 0.59 | 0.49 | 1.08 | 1.09 | 1.1 | 1.14 | 1.15
14 | NCI-H2228 | 0.356 | 0.294 | 0.284 | 0.457 | 0.194 | 1.27 | 1.11 | 1.14 | 0.957 | 1.09 | 0.636 | 0.459 | 0.628 | 0.695 | 0.2 | 1.08 | 0.954 | 0.958 | 0.835 | 0.965
15 | NCI-H2347 | 0.476 | 0.295 | 0.347 | 0.495 | 0.358 | – | 0.907 | 0.931 | 0.917 | 1.2 | 0.361 | 0.399 | 0.404 | 0.446 | 0.376 | 1 | 0.9 | – | 0.969 | 0.968
16 | NCI-H2405 | 0.37 | 0.373 | 0.36 | 0.453 | 0.432 | 1.02 | 0.968 | 0.923 | 0.99 | 0.23 | 0.634 | 0.632 | 0.628 | 0.751 | 0.686 | 0.833 | 0.977 | 0.978 | 0.92 | 0.995
17 | NCI-H3122 | 0.394 | 0.348 | 0.354 | 0.349 | 0.332 | 1.02 | 0.986 | 0.92 | 0.926 | 0.873 | 1.01 | 0.958 | 1 | 1.08 | 0.758 | 1.03 | 1.05 | 1.01 | 0.986 | 0.935

— the supplement of paper PMC10307832
